Source: patent US20040048279A1, “Method for detecting methylation states for a toxicological diagnostic” (priority 2000, published 2004)

How the values were obtained:
Cyp1a1 = details: mice exposed to the substance; Arch Biochem Biophys 2000;376(1):66-73; cited from earlier work
HT29-P208 cells = experiment: Methylation state of CpG positions by bisulfite treatment, multiplex PCR and oligonucleotide array hybridization in treated HT29-P208 cells; assay type: cell-based; details: for methylation state of selected CpG positions of the genes EGFR, ANT1 and CDC25A (CG signal / (CG+TG signal)): trichostatin 50 nM or milrinone 50 μM, FIG. 4; for methylation state of selected CpG positions of the genes EGFR, ANT1 and CDC25A (CG signal / (CG+TG signal)) / methylation state of selected CpGs of the genes TGF-a, EGFR, ANT1 and E-cadherin (CG signal / (CG+TG signal)): treated versus untreated; for methylation state of selected CpGs of the genes TGF-a, EGFR, ANT1 and E-cadherin (CG signal / (CG+TG signal)): FIG. 3; for differences in methylation of 64 gene fragments versus controls: treatment time 6 h (data not shown); for degree of methylation of various CpG positions of 64 gene fragments, in contrast to controls (HT29-P208 in medium): treatment time 24 h, 10 ng/ml TGF-b1 or 10 ng/ml IL-1b in medium, FIGS. 1 and 2, p<0.05
Method: HT-29 P208 cells (5×10^4 cells/ml) were seeded in culture dishes (33×5 cm) and grown for 5 days in DMEM/Ham's F-12 medium, which was supplemented with 10% fetal calf serum at 37° C. and 5% CO2, up to 95% confluence (Campbell-Thompson, M. and Bhardwaj, B., Cancer Research 2001, 61, 632-640). The cells were then incubated for 24 h in medium not containing calf serum. After repeated change of medium, the cells were incubated in 3 parallel cultures for 6 h and 24 h, either with medium, medium supplemented with 10 ng/ml TGF-b1, medium supplemented with 10 ng/ml IL-1b, medium supplemented with trichostatin (50 nM) or medium supplemented with milrinone (50 μM). The cells freed of medium were treated with trypsin, centrifuged, and resuspended in 200 μl of PBS buffer (Fritsch and Maniatis eds., Molecular Cloning: A Laboratory Manual, 1989), and stored at −20° C. The chromosomal DNA was purified with a QIAamp Kit according to the manufacturer's instructions (Qiagen, Hilden).
The DNA samples (20 ng) were digested with the restriction enzyme Mss1. The digested DNA was chemically converted with hydrogen sulfite (bisulfite, disulfite) and a radical trap at elevated temperature (DE 10050942). In this way, after alkaline hydrolysis, all unmethylated cytosines are converted to uracil, which correspond in their base-pairing behavior to thymidine. In contrast, 5-methylcytosine is not modified under these conditions.
The chemically pretreated DNA was then amplified with the use of a heat-stable DNA polymerase in a polymerase chain reaction. The multiplex PCR reactions were conducted with a thermocycler (Eppendorf GmbH) with the use of 10 ng of bisulfite-treated DNA, each time with […] of primer oligonucleotides (mixture of up to 32 individual primer oligonucleotides; see Table 3), 800 μM dNTPs and 4.5 mM magnesium chloride. The cycler program was as follows: step 1, 14 min at 96° C.; step 2, 60 sec 96° C.; step 3, 45 sec 55° C.; step 4, 75 sec 72° C.; step 5, 10 min at 72° C.; steps 2 to 4 were repeated 39 times.
The DNA fragments of 64 different genes listed in Table 3 were amplified with 6 sets of multiplex PCR (mPCR) and with bisulfite-treated DNA as the template, as described above. The mPCR reactions (I, J, K, L, M, N) of the genomic, bisulfite-treated DNA were conducted with the combination of primer oligonucleotides as listed in Table 3. It is also possible, however, to use other primer oligonucleotides in the same way for the amplification of the genomic, bisulfite-treated DNA. The primer pairs listed in Table 1, however, are particularly preferred.
The amplificates produced in Example 2 were hybridized with 512 oligonucleotides, which were bound to a solid phase (Model, F. and Adorjian, P., Bioinformatics 2001, 17 Suppl. 1, 157-164). The solid phase loaded with oligonucleotides is named an oligonucleotide array below. The detectability of the hybridization product is based on primer oligonucleotides fluorescently labeled with Cy5, which were used for the amplification. A hybridization reaction of the amplified DNA with the oligonucleotide, for example, GTTTTTTTCGTTTTAGAG (Sequence ID 6), occurs only when a methylated cytosine is present at the said site of the bisulfite-treated DNA. Thus, the methylation state of the specific cytosine can be determined by means of the hybridization product. In order to verify the methylation state of said position, an oligonucleotide is found on the oligonucleotide array, which permits it to detect the unmethylated cytosine. This oligonucleotide is identical to the oligonucleotide which was previously used for the analysis of the methylated status of the sample, with the exception that the oligonucleotide bears a thymine base instead of a cytosine base at the position to be analyzed, e.g., GTTTTTTTTGTTTTAGAG (Sequence ID 7). Thus, a hybridization reaction occurs only if an unmethylated cytosine is present at the position to be analyzed. […]

Compound | Cyp1a1 gene expression after exposure (Cyp1a1) | methylation state of selected CpG positions of the genes EGFR, ANT1 and CDC25A (CG signal / (CG+TG signal)) (HT29-P208 cells) | methylation state of selected CpGs of the genes TGF-a, EGFR, ANT1 and E-cadherin (CG signal / (CG+TG signal)) (HT29-P208 cells) | differences in methylation of 64 gene fragments versus controls (HT29-P208 cells) | degree of methylation of various CpG positions of 64 gene fragments, in contrast to controls (HT29-P208 in medium) (HT29-P208 cells)
O=c1cc(-c2ccccc2)oc2ccc3ccccc3c12 [beta-naphthoflavone] | induced | – | – | – | –
Cc1[nH]c(=O)c(C#N)cc1-c1ccncc1 [milrinone, reference compound] | – | reduction in the methylation state | – | – | –
CC(/C=C/C(=O)NO)=C\[C@@H](C)C(=O)c1ccc(N(C)C)cc1 [trichostatin, reference compound] | – | increase | – | – | –
IL-1b: IL-1b (interleukin), exogenous cytokine added to medium at 10 ng/ml | – | – | no change or to an increase in the methylation state | no significant differences in methylation | greater degree of methylation
TGF-b1: TGF-b1 (transforming growth factor), exogenous cytokine added to medium at 10 ng/ml | – | – | significant reduction of the methylation state | no significant differences in methylation | smaller degree of methylation
